# Source: ChEMBL document CHEMBL2331375, “Design, Synthesis, and Pharmacological Evaluation of Fluorescent and Biotinylated Antagonists of ρ1 GABAC Receptors” (ACS Med Chem Lett, 2013)
# Activity calls are given as the source filed them. The rule behind the calls is not given here.
# Key:
# [1] = biological target: T1, Gamma-aminobutyric acid receptor subunit rho-1 (Homo sapiens, UniProt P24046); assay: Antagonist activity at human GABAC rho1 receptor expressed in Xenopus laevis oocytes assessed as inhibition of GABA-induced current at 600 uM by two electrode voltage clamp assay relative to control; assay type: cell-based; details: Oocyte
# T1 sequence (P24046 whole entry): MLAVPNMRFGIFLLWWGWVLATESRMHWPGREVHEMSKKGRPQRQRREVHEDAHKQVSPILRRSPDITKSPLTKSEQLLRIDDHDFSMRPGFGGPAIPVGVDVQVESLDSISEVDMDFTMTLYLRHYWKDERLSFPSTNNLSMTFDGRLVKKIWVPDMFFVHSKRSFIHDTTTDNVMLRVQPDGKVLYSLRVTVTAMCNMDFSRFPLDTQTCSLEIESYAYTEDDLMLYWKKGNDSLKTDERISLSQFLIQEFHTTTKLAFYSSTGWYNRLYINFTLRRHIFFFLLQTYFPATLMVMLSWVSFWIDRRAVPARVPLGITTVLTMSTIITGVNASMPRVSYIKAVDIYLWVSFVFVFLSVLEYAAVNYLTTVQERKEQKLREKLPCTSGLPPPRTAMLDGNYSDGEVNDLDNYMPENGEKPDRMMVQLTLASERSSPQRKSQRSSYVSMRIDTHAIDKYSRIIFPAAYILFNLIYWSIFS
# [2] = biological target: GABA-A receptor; alpha-1/beta-2/gamma-2 (Homo sapiens) (UniProt P14867+P47870+P18507); assay: Antagonist activity at human GABAA alpha1beta2gamma2L receptor expressed in Xenopus laevis oocytes assessed as inhibition of GABA-induced current at 300 uM by two electrode voltage clamp assay relative to control; assay type: cell-based; details: Oocyte
# [3] = biological target: T1, Gamma-aminobutyric acid receptor subunit rho-1; assay: Antagonist activity at human GABAC rho1 receptor expressed in Xenopus laevis oocytes assessed as inhibition of GABA-induced current at 300 uM by two electrode voltage clamp assay relative to control; assay type: cell-based; details: Oocyte
# [4] = biological target: T1, Gamma-aminobutyric acid receptor subunit rho-1; assay: Antagonist activity at human GABAC rho1 receptor expressed in Xenopus laevis oocytes assessed as inhibition of GABA-induced current by two electrode voltage clamp assay; assay type: cell-based, Oocyte
# [5] = biological target: T1, Gamma-aminobutyric acid receptor subunit rho-1; assay: Agonist activity at GABAC rho1 receptor (unknown origin)
# [6] = biological target: GABA-A receptor; agonist GABA site; assay: Agonist activity at GABAA receptor (unknown origin); assay type: protein-complex assay, Homo sapiens
# [7] = Agonist activity at GABAC receptor (unknown origin) expressed in Xenopus laevis oocytes; assay type: cell-based; details: Homo sapiens, Oocyte
# [8] = biological target: T1, Gamma-aminobutyric acid receptor subunit rho-1; assay: Partial agonist activity at GABAC rho1 receptor (unknown origin)
# [9] = biological target: T1, Gamma-aminobutyric acid receptor subunit rho-1; assay: Antagonist activity at human GABAC rho1 receptor expressed in Xenopus laevis oocytes assessed as inhibition of GABA-induced current preincubated for 5 mins by two electrode voltage clamp assay; assay type: cell-based, Oocyte
# Homo sapiens = species on record: Homo sapiens; assay: Selectivity for human GABAC rho1 receptor over human GABAA alpha1beta2gamma2L receptor
smiles,measurement,setting,value
CCCCP(=O)(O)C1=CC[C@H](NC(=O)CCCCCCCCCCNC(=O)c2ccccc2NC)C1,inhibition,[1],8%
CCCCP(=O)(O)C1=CC[C@H](NC(=O)CCCCCNC(=O)c2ccccc2NC)C1,inhibition,[2],inactive
same,inhibition,[1],62%
CCCCP(=O)(O)C1=CC[C@@H](NC(=O)CCCCCNC(=O)c2ccccc2NC)C1,inhibition,[2],inactive
same,inhibition,[1],56%
CCCCP(=O)(O)C1=CC[C@H](N)C1,inhibition,[3],97%
same,IC50,[4],9.76 µM
same,inhibition,[2],inactive
NC[C@@H]1C[C@@H]1C(=O)O,EC50,[5],39.7 µM
NCc1cc(=O)[nH]o1 [MUSCIMOL],EC50,[6],27 µM
same,EC50,[7],2 µM
same,EC50,[8],2300 nM
CCCCP(=O)(O)C1=CC[C@H](NC(=O)CCCCCCCNC(=O)c2ccccc2NC)C1,inhibition,[1],24%
CCCCP(=O)(O)C1=CC[C@H](NC(=O)CCCC[C@@H]2SC[C@@H]3NC(=O)N[C@@H]32)C1,inhibition,[3],inactive
CCCCP(=O)(O)C1=CC[C@H](NC(=O)CCCNC(=O)c2ccccc2NC)C1,inhibition,[1],23%
O=C(CCCC[C@@H]1SC[C@@H]2NC(=O)N[C@@H]21)NCCCCCC(=O)NCc1cc(O)no1,EC50,[7],20 µM
CCCCP(=O)(O)C1=CC[C@H](NC(=O)CCCCNC(=O)c2ccccc2NC)C1,inhibition,[1],31%
CCCCP(=O)(O)C1=CC[C@H](NC(=O)CCCCCNC(=O)CCCC[C@@H]2SC[C@@H]3NC(=O)N[C@@H]32)C1,IC50,[4],148 µM
same,inhibition,[2],9%
same,IC50,[9],76.5 µM
CCCCP(=O)(O)C1=CC[C@H](NC(=O)CCCCCCNC(=O)c2ccccc2NC)C1,inhibition,[1],55%
CCCCP(=O)(O)C1=CC[C@H](NC(=O)CCCCCNc2ccc([N+](=O)[O-])c3nonc23)C1,IC50,[4],281 µM
same,inhibition,[2],inactive
same,IC50,[9],193 µM
CCCCP(=O)(O)C1=CC[C@H](NC(=O)CCCCCNC(=O)CCC2=C3C(C)=CC(C)=[N+]3[B-](F)(F)n3c(C)cc(C)c32)C1,IC50,[4],103 µM
same,Selectivity ratio,Homo sapiens,> 100
same,inhibition,[2],inactive
same,IC50,[9],58.6 µM
CCCCP(=O)(O)C1=CC[C@H](NC(=O)CNC(=O)c2ccccc2NC)C1,inhibition,[1],8%
Cc1nc[nH]c1CC(=O)O,EC50,[5],22 µM
CCCCP(=O)(O)C1=CC[C@@H](N)C1,inhibition,[3],92%
same,inhibition,[2],inactive
